Measurements as given in patent publication US10501447B2, “Imidazolecarboxamides and their use as FAAH inhibitors” (BIAL-PORTELA & Ca, S.A., priority 2013, dated 2019).

Tests used:
[1] = CYPs metabolic stability assay in HLM; type: in vitro ADME, human; conditions: 1 h, 5 μM compound; for Metabolic Stability (% of Remaining) Human CYP+: with NADPH; for Metabolic Stability (% of Remaining) Human CYP−: without NADPH (control value)
Procedure: (§1) Stability of the test compounds was performed in MLM (mouse liver microsomes) or HLM (human liver microsomes) in the presence and in the absence of NADPH.
(§2) The stability was measured using the incubation mixture (100 μl total volume) contained 1 mg/ml total protein, MgCl2 5 mM and 50 mM K-phosphate buffer. Samples were incubated in the presence and in the absence of NADPH 1 mM. Reactions were pre-incubated 5 min and the reaction initiated with the compound under test (5 μM for HLM and 50 μM for MLM). Samples were incubated for 60 min in a shaking water bath at 37° C. The reaction was stopped by adding 100 μl of acetonitrile. Samples were then centrifuged, filtered and supernatant injected in HLPC-MSD. Test compounds were dissolved in DMSO and the final concentration of DMSO in the reaction was below 0.5% (v/v). At T0 acetonitrile was added before adding the compound. All experiments were performed with samples in duplicate.
(§3) The stability data are given as % of remaining compound after 1 h exposure to MLM or HLM. 100% means no metabolic reaction at all and 0% corresponds to full enzymatic degradation. “CYP−” refers to the absence of cofactor (NADPH) which is essential for CYP metabolic reactions. Therefore “CYP−” can be regarded as control value. “CYP+” refers to the presence of cofactor and the enzymatic degradation may take place according to the stability of the test compound.

[2] = target: T1, FAAH (Rattus norvegicus, UniProt P97612); experiment: FAAH activity in liver homogenate after oral dosing of rats; type: in vivo; conditions: gavage; for activity at 0.1 mg/kg: rat, po
T1 construct: Liver biopsies and brain samples (without cerebellum) were collected and placed in a plastic vial containing membrane buffer; from tissue; host or cells: liver homogenate of male Wistar rats
T1 sequence (P97612 1-579): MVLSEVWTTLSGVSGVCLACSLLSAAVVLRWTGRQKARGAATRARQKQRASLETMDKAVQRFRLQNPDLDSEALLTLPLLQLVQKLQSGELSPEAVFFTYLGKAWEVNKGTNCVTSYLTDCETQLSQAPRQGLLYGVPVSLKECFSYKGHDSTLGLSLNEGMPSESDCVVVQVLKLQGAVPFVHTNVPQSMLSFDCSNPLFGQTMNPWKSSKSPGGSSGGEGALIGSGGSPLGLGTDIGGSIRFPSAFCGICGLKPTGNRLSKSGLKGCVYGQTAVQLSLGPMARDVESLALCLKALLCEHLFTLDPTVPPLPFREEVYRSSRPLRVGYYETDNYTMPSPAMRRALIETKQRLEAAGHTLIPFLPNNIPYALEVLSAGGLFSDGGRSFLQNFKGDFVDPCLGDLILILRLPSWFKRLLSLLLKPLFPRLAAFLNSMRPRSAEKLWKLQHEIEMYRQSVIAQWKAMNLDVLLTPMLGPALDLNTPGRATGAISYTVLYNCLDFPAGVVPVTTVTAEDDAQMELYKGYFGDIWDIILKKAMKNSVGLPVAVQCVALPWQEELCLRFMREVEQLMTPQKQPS
Procedure: (§4) In vivo testing was performed according to the protocol described below. BRh (brain homogenate) indicates inhibition in central nervous tissue, in this case, brain, and LVh (liver homogenate) indicates inhibition in peripheral tissue, in this case, liver. The controls were the reaction mix minus the test compounds. Therefore, a low value for the test compound indicates a strong inhibitor.
Male Wistar rats (body weight range: 190-230 g) were obtained from Harlan (Spain). Rats were kept 5 per cage, under controlled environmental conditions (12 hr light/dark cycle and room temperature 22±1° C.). Food and tap water were allowed ad libitum and the experiments were all carried out during daylight hours.
Rats were administered the appropriate dose of compound of the invention via gavage (administration volume=4 ml/kg body weight) using animal feeding stainless steel curve needles (Perfectum, U.S.A.). Vehicle was 0.5% CMC in Milli Q water. Rats were fasted at least 15 h before experiments.
Fifteen minutes before sacrifice animals were anesthetized with pentobarbital i.p. 60 mg/kg body weight. Liver biopsies and brain samples (without cerebellum) were collected and placed in a plastic vial containing membrane buffer (3 mM MgCl2, 1 mM EDTA, 50 mM Tris HCl pH 7.4) and, in the case of liver samples, glass beads (2.5 mm BioSpec Products). Tissues were stored at −20° C. until analysis.
Anandamide [ethanolamine-1-3H-] was obtained from American Radiochemicals (specific activity of 60 Ci/mmol). All other reagents were obtained from Sigma-Aldrich. Optiphase Supermix was obtained from Perkin Elmer.
Tissues were thawed on ice; livers were homogenized in a Precellys 24 Dual Tissue Homogenizer (Bertin Technologies) for 2 cycles of 5 sec with an interval of 5 min in ice and brains were homogenized with Heidolph Silent Crusher M (probe 8 F/M) for about 45 sec at maximum velocity. Total protein in homogenates was determined with the BioRad Protein Assay (BioRad) using a standard curve of BSA (50-250 μg/ml).
Reaction mix (total volume of 200 μl) contained: 2 μM AEA (2 μM AEA+5 nM 3H-AEA), 0.1% fatty acid free BSA, 15 μg (brain) or 1.5 μg (liver) protein, in 1 mM EDTA, 10 mM Tris pH 7.6. After 15 minutes pre-incubation at 37° C. reaction was started by the addition of the substrate solution (cold AEA+radiolabelled AEA+BSA). Reaction was carried out for 7 minutes for liver samples and for 10 min for brain samples and terminated by addition of 400 μL chloroform:methanol (1:1, v/v) solution. Reaction samples were vortex twice, left on ice for 5 minutes and then centrifuged in microfuge (7 minutes, 7000 rpm). Two-hundred μl of supernatants were added to 800 μl Optiphase Supermix scintillation cocktail previously distributed in 24-well plates. Counts per minute (cpm) were determined in a Microbeta TriLux scintillation counter. In each assay blank samples (without protein) were prepared. The percentage of remaining enzymatic activity was calculated in respect to controls and after blank subtraction.

[3] = CYPs metabolic stability assay in MLM; type: in vitro ADME, mouse; conditions: 1 h, 50 μM compound; for Metabolic Stability (% of Remaining) Mouse CYP+: with NADPH; for Metabolic Stability (% of Remaining) Mouse CYP−: without NADPH (control value)
Procedure: as §1, §2, §3

[4] = target: T2, FAAH (Mus musculus, UniProt O08914); experiment: FAAH activity in brain homogenate after oral dosing of mice; type: in vivo; conditions: 8 h, remaining activity vs controls, low value = strong inhibitor, read-out: FAAH Activity (%) Br h
T2 construct: A fragment of liver and brain without cerebellum were removed and put in plastic vials containing membrane buffer; from tissue; host or cells: brain (without cerebellum) and liver homogenates of male NMRI mice
T2 sequence (O08914 1-579): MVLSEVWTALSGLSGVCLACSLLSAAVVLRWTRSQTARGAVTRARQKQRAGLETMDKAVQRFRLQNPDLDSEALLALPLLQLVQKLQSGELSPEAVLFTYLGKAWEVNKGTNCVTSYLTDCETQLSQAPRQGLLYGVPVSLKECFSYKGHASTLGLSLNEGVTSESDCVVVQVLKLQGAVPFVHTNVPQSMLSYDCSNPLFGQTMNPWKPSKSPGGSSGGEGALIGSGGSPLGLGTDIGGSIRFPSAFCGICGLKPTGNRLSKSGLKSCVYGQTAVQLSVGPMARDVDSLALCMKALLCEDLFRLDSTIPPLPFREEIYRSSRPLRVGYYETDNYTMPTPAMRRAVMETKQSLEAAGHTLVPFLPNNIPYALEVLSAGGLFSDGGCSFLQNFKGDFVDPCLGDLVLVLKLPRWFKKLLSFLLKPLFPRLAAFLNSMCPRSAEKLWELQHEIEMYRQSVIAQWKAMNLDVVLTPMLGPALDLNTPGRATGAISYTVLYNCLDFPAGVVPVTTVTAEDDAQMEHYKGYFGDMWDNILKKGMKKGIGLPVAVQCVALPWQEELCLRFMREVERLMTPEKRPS
Procedure: as §4
(§5) The animals used for experiments were male NMRI mice (weighing 27-44 g) obtained from Interfauna Ibérica (Spain). Mice were kept 5 per cage, under controlled environmental conditions (12 hr light/dark cycle and room temperature 22±1° C.). Food and tap water were allowed ad libitum and the experiments were all carried out during daylight hours.
(§6) Animals were always fasted overnight before administration of compounds.
(§7) Animals were administered the appropriate dose of the compound of the invention via oral route (8 ml/kg; compound suspended in 0.5% carboxymethylcellulose (CMC) or solubilized in water) or vehicle (controls) using animal feeding stainless steel curve needles (Perfectum, U.S.A.). Fifteen minutes before sacrifice animal were anesthetized with pentobarbital 60 mg/kg administered intraperitoneally. A fragment of liver and brain without cerebellum were removed and put in plastic vials containing membrane buffer (3 mM MgCl2, 1 mM EDTA, 50 mM Tris HCl pH 7.4). Tissues were stored at −30° C. until analysis.
Anandamide [ethanolamine-1-^3H-] (40-60 Ci/mmol) was obtained from American Radiochemicals. All other reagents were obtained from Sigma-Aldrich. […]
(§8) Total protein in tissues was determined with the BioRad Protein Assay (BioRad) using a standard curve of BSA (50-250 μg/ml).
Reaction mix (total volume of 200 μl) contained: 2 μM AEA (2 μM AEA+5 nM ^3H-AEA), 0.1% fatty acid free BSA, 15 μg (brain) or 5 μg (liver) protein, in 1 mM EDTA, 10 mM Tris pH 7.6. […] Counts per minute (cpm) were determined in a MicrobetaTriLux scintillation counter. […]
(§9) The percentage of remaining enzymatic activity was calculated with respect to controls and after blank subtraction.

[5] = target: T2, FAAH; experiment: FAAH activity in liver homogenate after oral dosing of mice; type: in vivo; conditions: for Peripheral Selectivity: FAAH activity in the liver divided by FAAH activity in the brain (3 mg/kg, 8 h, po), lower = peripherally more selective; for activity at 1 mg/kg / activity at 0.3 mg/kg / activity at 3 mg/kg / activity at 0.1 mg/kg / activity at 0.01 mg/kg / activity at 0.03 mg/kg: mouse, po; for activity at 3 mg/kg: liver homogenate, remaining activity vs controls, read-out: FAAH Activity (%) Lv h
Procedure: as §4, §5, §6, §7
Anandamide [ethanolamine-1-^3H-] (40-60 Ci/mmol) was obtained from American Radiochemicals. All other reagents were obtained from Sigma-Aldrich. Optiphase Supermix was obtained from Perkin Elmer and activated charcoal was obtained from Sigma-Aldrich.
Tissues were thawed on ice and were homogenized in 10 volumes of membrane buffer (3 mM MgCl2, 1 mM EDTA, 50 mM Tris HCl pH 7.4) with either Potter-Elvejhem (brains—8 strokes at 500 rpm) or Heidolph Diax (livers—2 strokes at position 5 for 20 sec with 30 sec pauses).
as §8
Reaction mix (total volume of 200 μl) contained: 2 μM AEA (2 μM AEA+5 nM ^3H-AEA), 0.1% fatty acid free BSA, 15 μg (brain) or 5 μg (liver) protein, in 1 mM EDTA, 10 mM Tris pH 7.6. After a 15 min pre-incubation period at 37° C., reaction was started by the addition of the substrate solution (cold AEA+radiolabelled AEA+BSA). Reaction was carried out for 10 min (brain) or 7 min (liver) before termination by the addition of 400 μl activated charcoal suspension (8 g charcoal in 32 ml 0.5 M HCl in continuous agitation). After a 30 min incubation period at room temperature with agitation, charcoal was sedimented by centrifugation in microfuge (10 min at 13000 rpm). 200 μl of the supernatant were added to 800 μl Optiphase Supermix scintillation cocktail previously distributed in 24-well plates. Counts per minute (cpm) were determined in a MicrobetaTriLux scintillation counter.
In each assay blanks (without protein) were prepared.
as §9

Structure (SMILES)	Metabolic Stability (% of Remaining) Human CYP+ [1] [%]	Metabolic Stability (% of Remaining) Human CYP− [1] [%]	FAAH Activity (%) rat Liver ([2]; Dose: 1 mg/k9, 1 h) [%]	FAAH Activity (%) rat Liver ([2]; Dose: 1 mg/k9, 8 h) [%]	FAAH Activity (%) rat Liver ([2]; Dose: 1 mg/k9, 24 h) [%]	Metabolic Stability (% of Remaining) Mouse CYP+ [3] [%]	Metabolic Stability (% of Remaining) Mouse CYP− [3] [%]	melting point [°C]	activity at 3 mg/kg [4] [%]	Peripheral Selectivity [5]	activity at 1 mg/kg ([5]; 1 h) [%]	activity at 0.3 mg/kg ([5]; 8 h) [%]	activity at 3 mg/kg ([5]; 8 h) [%]	activity at 0.1 mg/kg ([2]; 1 h) [%]	activity at 0.1 mg/kg ([2]; 8 h) [%]	activity at 0.1 mg/kg ([5]; 1 h) [%]	activity at 0.01 mg/kg ([5]; 8 h) [%]	activity at 0.03 mg/kg ([5]; 8 h) [%]	activity at 0.1 mg/kg ([5]; 8 h) [%]
CN(C(=O)n1cnc(-c2cccc(NS(N)(=O)=O)c2)c1)C1CCOCC1 [Compound 1, N-Methyl-4-(3-(sulfamoylamino)phenyl)-N-(tetrahydro-2H-pyran-4-yl)-1H-imidazole-1-carboxamide]	96	102	9.8	4.8	22.7	93	100	128	117	0.042	8.5	36.1	4.9	–	–	–	–	–	–
CCC(=O)N1CCC(N(C)C(=O)n2cnc(-c3ccc(O)c(C)c3)c2)CC1 [Compound 2, 4-(4-Hydroxy-3-methylphenyl)-N-methyl-N-(1-propionylpiperidin-4-yl)-1H-imidazole-1-carboxamide]	100	94	25.7	18.2	17.8	86	83	232	81.7	0.018	2.3	5.6	1.5	78.2	59.1	21.9	48.2	42.9	6.7
Cc1cc(-c2cn(C(=O)N(C)C3CCN(C(=O)C4CC4)CC3)cn2)ccc1O [Compound 3, N-(1-(Cyclopropanecarbonyl)piperidin-4-yl)-4-(4-hydroxy-3-methylphenyl)-N-methyl-1H-imidazole-1-carboxamide]	99	102	–	–	–	98	91	204	91.7	0.020	–	7.2	1.8	83.5	62.5	37.9	56.3	53	10.7
